Test results as given in PMC12367838, “Relevance of kinetic interactions and co-formulants for plant protection product liver toxicity in vitro” (Archives of Toxicology, 2025).

Columns and labels:
[1] = tested on: HepaRG cells; test: Neutral red uptake (NRU) cytotoxicity assay; format: cell-based, human; settings: 72 h, tested concentration range
Method: Wild-type human hepatoma HepaRG cells obtained from Biopredic International (Saint Grégoire, France) were cultivated for 4 weeks in a Binder cell culture incubator maintained at 37 °C in a 5% humidified atmosphere with 5% CO2 before they were employed in this study. The 4 weeks consisted of 2 weeks of proliferation and 2 weeks of differentiation. […]
Cytotoxicity assays were performed in 96-well plates at a density of 9000 cells per well, and test compounds were incubated for 72 h. […] After the 30-min incubation with WST-1, absorbance was measured at 450 nm corrected by a reference at 620 nm (λexc = 450 nm/λemi = 620 nm) using an Infinite M200 PRO plate reader (Tecan; Männedorf, Switzerland). […] The absorbed dye was quantified by fluorescence measurement (λexc = 530 nm/λemi = 645 nm) on an Infinite M200 PRO plate reader (Tecan; Männedorf, Switzerland). Background corrected viability values of both assays were expressed as a percentage of untreated cells. […] Means and standard deviations for each treatment were calculated. […]

[2] = biological target: T1, CYP2C19 (Homo sapiens, UniProt P33261); test: P450-Glo screening system, CYP inhibition; format: biochemical; settings: recombinant human CYP, luciferin-H EGE
T1 construct: purchased Promega
T1 sequence (P33261 whole entry): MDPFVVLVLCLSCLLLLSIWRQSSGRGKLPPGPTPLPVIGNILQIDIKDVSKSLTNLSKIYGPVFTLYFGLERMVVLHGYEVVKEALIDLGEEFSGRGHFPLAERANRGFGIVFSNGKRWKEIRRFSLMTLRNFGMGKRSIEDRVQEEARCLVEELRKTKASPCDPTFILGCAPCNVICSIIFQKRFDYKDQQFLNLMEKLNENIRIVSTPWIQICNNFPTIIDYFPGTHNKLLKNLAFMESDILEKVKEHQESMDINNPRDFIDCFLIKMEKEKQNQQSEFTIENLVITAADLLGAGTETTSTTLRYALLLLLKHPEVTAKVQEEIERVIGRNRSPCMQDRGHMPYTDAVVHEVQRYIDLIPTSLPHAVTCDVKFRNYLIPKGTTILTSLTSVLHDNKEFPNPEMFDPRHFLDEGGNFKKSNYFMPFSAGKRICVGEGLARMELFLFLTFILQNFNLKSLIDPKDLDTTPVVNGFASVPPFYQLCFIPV
Excerpt: (§1) The P450-Glo™ screening systems (Promega; Madison, Wisconsin, USA) were used in this study to explore the inhibitory properties of MDP on the major CYP isoforms involved in xenobiotic metabolism (CYP1A2, CYP2C9, CYP2C19, CYP2D6, and CYP3A4). HepaRG cells were not utilized in this assay to avoid potential cross reactivity since all CYP enzymes are expressed in this cell line. Therefore, this inhibition study relied on recombinant human CYP enzymes integrated in membrane preparation. The principle of the assay is based on the conversion of a luminogenic substrate (100 µM luciferin-ME for CYP1A2, 100 µM luciferin-H for CYP2C9, 50 µM luciferin-H EGE for CYP2C19, 30 µM luciferin-ME EGE for CYP2D6, and 100 µM luciferin-PPXE for CYP3A4) to luciferin by the respective enzyme. The assay was conducted according to the instructions of the supplier. Briefly, eight non-cytotoxic concentrations of MDP or a CYP selective inhibitor were preincubated for 10 min at 37 °C together with the luminogenic substrate, potassium phosphate buffer, and luciferin-free water, and the test compounds were added to white 96-well Costar® plates. After the preincubation, 25 µL of NADPH regeneration system (2.6 mM NADP + , 6.6 mM glucose-6-phosphate, 6.6 mM MgCl2, and 0.8 U/mL glucose-6-phosphate dehydrogenase) was added to each well to initiate CYP reactions. The plates were briefly shaken and taped before they were incubated at 37 °C for 10–30 min depending on the CYP enzyme under investigation. Luminescence of the luciferin product was initiated by adding 50 µL of the luciferin detection reagent. Subsequently, the plates were briefly shaken and then incubated for 20 min at room temperature in order to stabilize the luminescent signal. The luminescence was measured on the Infinite M200 PRO plate reader (Tecan; Männedorf, Switzerland). The measurements were corrected by subtracting the minus P450 control signals from each measurement and represented as changes in luminescence signals (ΔRLU). The ΔRLU values of MDP were compared with the ΔRLU values of the untreated samples and represented as relative changes in luminescence in relation to the control (%). Three independent experiments with three technical replicates were conducted (n = 3). Means and standard deviations for each treatment were calculated before calculating the IC50 values of MDP for each CYP enzyme.
(§2) A linear mixed-effects ANOVA (α = 0.05) described by Pinheiro and Bates ([2000]) followed by a post-hoc Dunnett test for multiple comparisons of treatment groups versus the control was used for statistical analysis of data from cytotoxicity assay, AdipoRed assay, CYP450 inhibition assay as well as mixture effects. R studio (ver. 4.4.1) was used to determine the effective concentration at relative triglyceride induction fold of 1.5 for each test compound.

[3] = biological target: T2, CYP2C9 (Homo sapiens, UniProt P11712); test: P450-Glo screening system, CYP inhibition; format: biochemical; settings: recombinant human CYP, luciferin-H
T2 construct: purchased Promega
T2 sequence (P11712 whole entry): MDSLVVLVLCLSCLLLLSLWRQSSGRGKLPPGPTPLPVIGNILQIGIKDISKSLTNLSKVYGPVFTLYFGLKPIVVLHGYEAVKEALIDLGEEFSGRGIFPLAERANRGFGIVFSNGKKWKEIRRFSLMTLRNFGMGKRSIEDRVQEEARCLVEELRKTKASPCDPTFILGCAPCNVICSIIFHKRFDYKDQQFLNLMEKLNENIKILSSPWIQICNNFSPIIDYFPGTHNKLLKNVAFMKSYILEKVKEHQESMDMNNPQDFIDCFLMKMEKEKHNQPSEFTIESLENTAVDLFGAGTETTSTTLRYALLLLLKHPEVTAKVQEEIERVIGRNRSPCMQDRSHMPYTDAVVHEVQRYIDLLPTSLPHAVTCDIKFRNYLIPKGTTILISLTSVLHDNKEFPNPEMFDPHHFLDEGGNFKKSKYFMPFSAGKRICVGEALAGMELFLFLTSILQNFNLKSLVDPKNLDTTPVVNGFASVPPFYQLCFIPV
Excerpt: as §1, §2

[4] = biological target: T3, CYP2D6 (Homo sapiens, UniProt P10635); test: P450-Glo screening system, CYP inhibition; format: biochemical; settings: recombinant human CYP, luciferin-ME EGE
T3 construct: purchased Promega
T3 sequence (P10635 whole entry): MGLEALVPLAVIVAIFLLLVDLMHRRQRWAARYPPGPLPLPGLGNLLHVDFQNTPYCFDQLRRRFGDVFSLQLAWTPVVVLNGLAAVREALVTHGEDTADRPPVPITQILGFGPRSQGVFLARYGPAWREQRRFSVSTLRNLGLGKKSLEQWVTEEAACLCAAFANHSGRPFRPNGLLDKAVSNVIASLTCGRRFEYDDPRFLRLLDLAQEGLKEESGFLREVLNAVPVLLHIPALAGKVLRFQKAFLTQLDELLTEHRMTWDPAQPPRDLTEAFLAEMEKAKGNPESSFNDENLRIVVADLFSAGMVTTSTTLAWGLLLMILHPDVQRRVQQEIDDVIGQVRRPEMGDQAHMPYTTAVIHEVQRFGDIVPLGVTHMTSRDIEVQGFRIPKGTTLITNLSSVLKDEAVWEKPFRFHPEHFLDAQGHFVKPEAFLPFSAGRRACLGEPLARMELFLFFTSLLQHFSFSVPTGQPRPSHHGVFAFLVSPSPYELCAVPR
Excerpt: as §1, §2

[5] = biological target: T4, CYP3A4 (Homo sapiens, UniProt P08684); test: P450-Glo screening system, CYP inhibition; format: biochemical; settings: recombinant human CYP, luciferin-PPXE
T4 construct: purchased Promega
T4 sequence (P08684 whole entry): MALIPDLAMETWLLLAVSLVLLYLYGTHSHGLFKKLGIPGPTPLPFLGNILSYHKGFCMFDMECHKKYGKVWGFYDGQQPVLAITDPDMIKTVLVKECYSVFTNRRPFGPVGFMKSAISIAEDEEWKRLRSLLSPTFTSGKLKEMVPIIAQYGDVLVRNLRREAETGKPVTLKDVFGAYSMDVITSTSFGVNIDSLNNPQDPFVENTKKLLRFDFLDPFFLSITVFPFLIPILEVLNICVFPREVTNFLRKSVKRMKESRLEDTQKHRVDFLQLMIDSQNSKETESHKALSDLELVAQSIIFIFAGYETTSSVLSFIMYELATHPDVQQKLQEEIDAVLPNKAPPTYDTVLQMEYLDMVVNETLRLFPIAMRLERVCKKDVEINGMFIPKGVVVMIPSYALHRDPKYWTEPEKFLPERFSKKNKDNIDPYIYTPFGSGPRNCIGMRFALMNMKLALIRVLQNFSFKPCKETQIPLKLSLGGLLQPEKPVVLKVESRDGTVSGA
Excerpt: as §1, §2

Q: Which results are given for `C#CCOc1ccc(CCNC(=O)C(OCC#C)c2ccc(Cl)cc2)cc1OC` (stereo not drawn) [MDP, mandipropamid]?
A: cytotoxicity [1]: not cytotoxic in the tested concentration range; IC50 [2]: 0.824 µM; IC50 CYP2C19 [2]: 0.340 µg/mL; IC50 [3]: 1.18 µM; IC50 CYP2C9 [3]: 0.488 µg/mL; IC50 [4]: 18.1 µM; IC50 CYP2D6 [4]: 7.47 µg/mL; IC50 [5]: 1.32 µM; IC50 CYP3A4 [5]: 0.544 µg/mL
